Experiment [1] addresses T1, mouse CB2 receptors (Mus musculus, UniProt P47936).
T1 construct: from tissue; host or cells: mouse spleen (wild type)
In words: Radioligand saturation binding using mouse spleen tissue WT. The protocol:
(§1) Stably transfected cells or spleen tissue were homogenized in 15 mmol L-1 Hepes, 0.3 mmol L-1 EDTA, 1 mmol L-1 EGTA, 2 mmol L-1 MgCl2, complete EDTA-free protease inhibitor (Roche Applied Science, Rotkreuz, Switzerland), pH 7.4 using a glass potter and centrifugation at 47,800 g at 4° C. for 30 min. The pellet was then rehomogenized twice in the same buffer and centrifuged (47,800 g, 4° C., 30 min). The final pellet was then resuspended in 75 mmol L-1 Tris, 0.3 mmol L-1 EDTA, 1 mmol L-1 EGTA, 12.5 mmol L-1 MgCl2, 250 mmol L-1 sucrose, pH 7.4 at a protein concentration of 1 to 3 mg mL-1, aliquoted, frozen on dry ice and stored at −80° C.
Saturation binding was performed with 0.05 to 2.4 nM compound of formula (I) and 40 μg of membrane protein. CP55940 (10 μM) was used to define nonspecific binding. Assay buffer consisted of 50 mmol L-1 Tris-HCl, 5 mmol L-1 MgCl2, 2.5 mmol L-1 EGTA, and 0.1% fatty acid-free BSA, pH 7.4. Assays were initiated by addition of membranes in a final volume of 250 μl/well. Assays were incubated for 2 h at room temperature and then vacuum filtered and rinsed with wash buffer (50 mmol L-1 Tris-HCl, 5 mmol L-1 MgCl2, 2.5 mmol L-1 EGTA, and 0.5% fatty acid-free BSA, pH 7.4) on a Filtermate cell harvester through Packard GF/B filters presoaked in 0.3% polyethylenimine.

In experiment [2] the target is T2, CB2 receptors (Mus musculus, UniProt P47936).
T2 construct: from tissue; host or cells: mouse spleen (wild type)
T2 sequence (P47936 whole entry): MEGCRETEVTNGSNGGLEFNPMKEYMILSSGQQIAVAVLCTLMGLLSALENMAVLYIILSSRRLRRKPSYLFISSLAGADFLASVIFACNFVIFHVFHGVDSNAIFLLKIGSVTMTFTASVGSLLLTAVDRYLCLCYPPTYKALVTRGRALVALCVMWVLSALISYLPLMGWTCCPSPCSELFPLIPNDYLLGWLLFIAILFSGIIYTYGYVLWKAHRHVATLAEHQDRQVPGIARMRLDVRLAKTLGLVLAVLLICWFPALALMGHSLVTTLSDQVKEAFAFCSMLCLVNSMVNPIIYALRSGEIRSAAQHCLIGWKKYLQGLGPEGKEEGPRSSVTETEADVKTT
Nature of the experiment: Radioligand binding (1.5 nM) with increasing amounts of membranes, mouse spleen tissue WT. The following applies: 1.5 nM radioligand. The protocol: as §1
(§2) For competition binding, membrane preparations were incubated either with 0.3 nM of [^3H]-CP55940 in the presence or absence of increasing concentrations of unlabeled (R^1═CH3) compound of formula (I) or with 1.5 nM compound of formula (I) and increasing amounts of membranes (2.5-80 μg) in the presence or absence of CP55940 (10 μM) for 60 min at 30° C. in a final volume of 0.2 mL of 50 mmol L-1 Tris-HCl, 5 mmol L-1 MgCl2, 2.5 mmol L-1 EGTA, 0.1% fatty acid-free BSA and 1% DMSO, pH 7.4, buffer, gently shaking. […] IC50 values and Hill slopes were determined by a four parameter logistic model using ActivityBase (ID Business Solution, Ltd.).

Experiment [3] in a line: Radioligand binding using mouse spleen KO (CB2 deficient mice). The following applies: mouse spleen tissue from CB2 deficient mice, increasing amounts of membranes. The protocol: as §1, §2
Experiment [4] deals with T3, CB2 receptors (Homo sapiens, UniProt P34972). Nature of the experiment: Binding of HU-910 / [^3H]-HU-910 to CB2 receptors. The settings on record: CB2 receptors labeled with [^3H]-CP55940.
T3 sequence (P34972 whole entry): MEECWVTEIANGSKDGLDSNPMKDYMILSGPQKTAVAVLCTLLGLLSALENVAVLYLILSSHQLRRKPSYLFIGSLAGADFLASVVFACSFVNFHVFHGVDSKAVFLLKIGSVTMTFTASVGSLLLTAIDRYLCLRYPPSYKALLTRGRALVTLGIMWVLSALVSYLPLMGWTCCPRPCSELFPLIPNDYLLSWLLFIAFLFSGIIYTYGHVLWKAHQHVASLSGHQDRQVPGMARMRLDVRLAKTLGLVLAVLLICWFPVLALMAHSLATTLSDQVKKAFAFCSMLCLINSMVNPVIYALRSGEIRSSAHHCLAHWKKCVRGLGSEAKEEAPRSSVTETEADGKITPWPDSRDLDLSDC
In experiment [5] the target is T4, human CB1 receptors (Homo sapiens, UniProt P21554).
T4 construct: host or cells: CHO-K1 beta-arrestin cells
T4 sequence (P21554 whole entry): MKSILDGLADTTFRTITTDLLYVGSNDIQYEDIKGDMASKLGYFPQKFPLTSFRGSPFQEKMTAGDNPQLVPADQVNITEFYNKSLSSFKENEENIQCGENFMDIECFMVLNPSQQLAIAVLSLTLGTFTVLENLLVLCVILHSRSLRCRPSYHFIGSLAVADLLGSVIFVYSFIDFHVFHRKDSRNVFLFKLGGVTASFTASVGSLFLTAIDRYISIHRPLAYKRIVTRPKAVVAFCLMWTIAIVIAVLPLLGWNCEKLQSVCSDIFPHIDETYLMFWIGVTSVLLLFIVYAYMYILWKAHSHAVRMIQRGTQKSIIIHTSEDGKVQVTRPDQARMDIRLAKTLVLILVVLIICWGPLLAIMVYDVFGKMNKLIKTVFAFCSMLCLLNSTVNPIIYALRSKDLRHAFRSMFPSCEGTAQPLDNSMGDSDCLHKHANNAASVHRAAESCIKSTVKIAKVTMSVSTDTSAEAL
Nature of the experiment: Radioligand competition binding of [^3H]-CP55940, CHO-K1 cell membranes. The settings on record: [^3H]-CP55940 0.3 nM, n=6. The protocol:
(§3) CHO-K1 beta-arrestin cells (DiscoveRx Inc., Fremont, Calif.) expressing human CB1 and human CB2 were cultured in F-12 Nutrient Mixture (HAM) supplemented with 10% FBS, 300 μg ml-1 hygromycin and 800 μg ml-1 geneticin (G418). Cells were incubated in a humidified atmosphere at 37° C. with 5% CO2.
(§4) Stably transfected cells or spleen tissue were homogenized in 15 mmol L-1 Hepes, 0.3 mmol L-1 EDTA, 1 mmol L-1 EGTA, 2 mmol L-1 MgCl2, complete EDTA-free protease inhibitor (Roche Applied Science, Rotkreuz, Switzerland), pH 7.4 using a glass potter and centrifugation at 47,800 g at 4° C. for 30 min. The pellet was then rehomogenized twice in the same buffer and centrifuged (47,800 g, 4° C., 30 min). […]
as §2
On the technique in general: Loss of bound radioactivity is the signal in a displacement assay; it reports binding, not function.

Experiment [6] concerns the target T3, CB2 receptors. The experiment is described as above. The arrangement: host or cells: CHO-K1 beta-arrestin cells. The settings on record: [^3H]-CP55940 0.3 nM, n=13. The protocol:
as §3, §4, §2

Each structure is given as a SMILES string.

T1 sequence (P47936 whole entry): as the sequence (P47936 whole entry) above

As usually defined, the Kd is the free concentration of one partner at which half of the binding sites on the other are occupied at equilibrium, for simple one-to-one binding. `[3H]C([3H])([3H])n1c(C(C)(C)C)c/c(=N\C(=O)c2cc(C(F)(F)F)ccc2OCC(C)(C)O)n1CC1CCC1` [Example 1, (NE)-N-[5-tert-butyl-2-(cyclobutylmethyl)-1-(tritritiomethyl)pyrazol-3-ylidene]-2-(2-hydroxy-2-methyl-propoxy)-5-(trifluoromethyl)benzamide]: the “saturability of specific binding” value in experiment [1] is reported as “saturable”. The “CB2 receptor expression level (Bmax)” value in experiment [1] (saturation binding) is reported as 430 fmol/mg. The Kd in experiment [1] (saturation binding, read-out: half maximal affinity (Kd)) is 0.58 nM. Also, the specific binding entry is reported as “high specific binding” in experiment [2] and “lack of specific binding” in experiment [3].
As to `CCCCCCC(C)(C)c1cc(OC)c(C2=C[C@H]3CC[C@]2(CO)C3(C)C)c(OC)c1` [HU-910], the “binding to CB2 receptors” value in experiment [4] was “selectively and competitively binds to CB2 receptors”.
The Ki is the equilibrium dissociation constant of an inhibitor or competing ligand from its target. The low end stands for a stronger hold on the target, the high end for a looser hold on the target. On to `Cn1c(C(C)(C)C)cc(=NC(=O)c2cc(C(F)(F)F)ccc2OCC(C)(C)O)n1CC1CCC1`, for which the Ki in experiment [5] is 3890 nM; in experiment [6] it was 1.07 nM.

(Values after patent US10227308B2, “Radiolabeled cannabinoid receptor 2 ligand” (Hoffmann-La Roche Inc., priority 2014, dated 2019).)
